From patent US20180325850A1 (The Regents of the University of Michigan, priority 2017, published 2018) come the findings set out here.

Assay type in all cases: in vivo, rat
Assay [1] has as its system IR rats. Nature of the assay: Plasma biochemical assay of LDH and creatine kinase (MI injury biomarkers). Particulars: 24 h after VPA treatment.
Method: To determine the possible protective effect of VPA after MI, MI rats were generated by ischemia reperfusion and VPA was administrated to the animals. […] Intra-peritoneal injection of 250 mg/kg VPA was conducted immediately after and 12 h after coronary ligation. Heart functional assays, MI assessment, and physiological assays were performed 24 h after VPA administration.
Assay [2] deals with MI rats generated by ischemia reperfusion. Nature of the assay: Myocardial infarct size by triphenyltetrazolium chloride (TTC) staining. To be noted: two shots of VPA within 24 h of IR injury; versus saline controls. The method, then: Myocardial infarct size was determined by triphenyltetrazolium chloride (TTC) staining. The hearts were frozen rapidly and sliced into five 2 mm transverse sections. The sections were incubated at 37° C. with 1% TTC in phosphate buffer (pH 7.4) for 10 min, fixed in 10% formaldehyde solution, photographed and calculated using ImageJ software. The infarct size was expressed as a percentage of infarct volume versus left ventricle volume.

Assay [3] has the same test system. Nature of the assay: Echocardiography of heart function (EF, FS) after ischemia reperfusion MI. The method, then:
24 h post coronary ligation, a MI size of 33.59±3.54% of the left ventricle was induced in rats. […] Left ventricular internal diameter end diastole (LVIDd) and end systole (LVIDs) were measured perpendicularly to the long axis of the ventricle. EF and FS were calculated according to LVIDd and LVIDs.

Another assay concerns Foxm1. Description: RNA-seq of whole hearts one day after IR. An excerpt:
Recent studies indicate that neonatal CMs proliferate much more potently than adult CMs and Foxm1 appears to be a key factor in regulating neonatal CM proliferation by controlling Igf1 and cell cycle genes (Ref. 44; incorporated by reference in its entirety). […] These genes are mostly proliferation related genes. Other potential targets include anti-oxidative, pro-fibrotic, and CM structural genes. Foxm1 has also been reported to work with YAP1 to activate proliferation genes (Ref. 46; incorporated by reference in its entirety).

The subject of assay [4] is IR rats. Nature of the assay: Long-term (4-week) oral VPA treatment of IR rats, EF and FS. To be noted: oral VPA 250 mg/kg twice daily for 4 weeks, versus IR control animals.
Method: In addition, long-term (4-week) treatment of VPA was performed to IR rats.
Where [5] appears, read: IR rats, 250 mg/kg VPA intra-peritoneal immediately after and 12 h after coronary ligation, echocardiography at 24 h.

Consider `CCCC(CCC)C(=O)O` [VPA, valproic acid], for which, in the assay with IR rats [1], the “plasma LDH release” value came to 63.07±23.83 U/L and the “plasma creatine kinase (CK) release” value is reported as 158.31±43.53 U/L. The “reduction of infarct size” value in assay [2] is listed as “around 45%”. In assay [3] (setting [5]), the “fractional shortening (FS)” value came out at 33.21±4.46% and the “left ventricle ejection fraction (EF)” value came out at 60.60±6.18%. For the same molecule, the “rescue of the functional loss caused by acute IR injury” value in assay [3] (VPA treatment within 12 h of IR injury, from EF and FS) was “roughly 50%”. In addition, in the assay with Foxm1, the “Foxm1 expression, IR+VPA group versus no IR group” value amounted to 8 fold. Further, in the assay on IR rats [4], the “effect on ventricular remodeling and pumping function (EF, FS)” value is “protected the MI hearts from ventricular remodeling and weakening of the pumping function”.
